Assay [1] concerns H358 cells (ATCC CRL-5807). The experiment in a line: Cell viability assay (CellTiter-Glo), H358 cells. It counts as cell-based. The note with it: Homo sapiens, NCI-H358, 48 h incubation, first value of the cell, read-out: Cell Viability (μM) H358 (concentration that decreases cell viability by 50%). The procedure: (§1) Cells (A549 ATCC CCL-185) are cultured in Dulbecco's Modified Eagle's Medium plus 10% foetal calf serum and 2 mM L-glutamine at 37° C., 5% CO2. Cells are plated onto white clear bottom 96-well plates (5000 cells/well in 200 μl media) and left to adhere overnight at 37° C., 5% CO2. Next day, test compound (1 μl at 200× concentration in 100% DMSO) is added to give final test compound concentration 1× in 0.5% DMSO. After 48 h of incubation at 37° C., 5% CO2, 20 μl CellTiter-Glo reagent (Promega G7572) is added into each well. Plates are incubated at room temperature with shaking for 30 min and then luminescence is read using a PheraStar plate reader. The concentration of compounds that decrease cell viability by 50% is calculated from dose response curves generated using Dotmatics data analysis software.
In the H358 cell assay, cells (ATCC CRL-5807) are cultured in RPM-1640 medium plus 10% foetal calf serum and 2 mM L-glutamine at 37° C., 5% CO2.
For orientation: Cellular ATP, detected with luciferase, serves as a proxy for viable cell number.

Assay [2] deals with T1, GST-human KRas166 (G12V) GPPNHP (Homo sapiens, UniProt P01116, G12V).
T1 construct: made in house; host or cells: E. coli C41(DE3)
The experiment in a line: KRas small-molecule screening by SPR (BIACORE T200). It counts as binding. The note with it: compound at final concentration of 100 uM; immobilised GST-KRAS166 (G12V) GPPNHP, GST reference channel. The procedure:
For SPR assays pGEX-KRAS(G12V) plasmid was transformed into E. coli C41(DE3). Bacterial cells were cultured at 37° C. to an OD600 of 0.6 and induced with IPTG (final 0.1 mM) at 18° C. overnight. The GST fusion proteins were extracted from bacteria pellets after cell disruption in 140 mM NaCl, 2.7 mM KCl, […], 1.8 mM KH2PO4, 1 mM EDTA, 2 mM MgCl2 pH 7.4 and purified by glutathione-sepharose column chromatography (GE Healthcare), eluting with 50 mM Tris-HCl pH8.0, 10 mM reduced glutathione, 1 mM DTT, 2 mM MgC2. The eluted proteins were dialysed against 50 mM Tris-HCl pH8.0, 1 mM DTT, 2 mM MgCl2 and concentrated to 10 mg/ml using a Biomax-30 […]-15 centrifugal filter device (Millipore). Purified KRAS protein was loaded with GPPNHP as described elsewhere (Pacold et al., 2000). Loaded protein was then purified by gel filtration on a HiLoad Superdex-75 HR column (GE Healthcare) in 1×PBS pH7.4, 5 mM MgCl2 and concentrated for storage.
To a previously immobilized CM5 chip (GE Healthcare BR-1005-30) with anti GST antibody via amine coupling method, GST in channel 1 and GST-human KRas166 (G12V) GPPNHP in channel 2 were immobilised. GST was immobilised between 2,000 and 5,000 Response units. KRAS166 (G12V) was immobilized between 10,000 to 15,000 Response Units.
In a 96 well plate, compounds were diluted in […], 5 mM MgCl2 and 5% DMSO Buffer to a final concentration of 100 uM. DCAI was used as positive control. Experiment also included a solvent correction curve for 5% DMSO. Screening and evaluation of the protein immobilization and the compounds screening was done accordingly to the BIACORE T200 control and evaluation software.
Protein immobilisation: 10,000 RU; average fragment 300 Da in size. Rmax=(MWA/MWL)×RL×SM MWA is the molecular weight of the analyte in Da MWL is the molecular weight of the ligand in Da RL is the immobilization level in RU SM is the molar stoichiometry (assume 1:1) Rmax=300/47,500×10,000×1 Rmax=63 RU. Cell Viability Assay protocols
(SPR reads the build-up and loss of mass on a sensor chip optically.)

Assay [3] relates to DLD1 cells (ATCC CCL-221). Put plainly: Cell viability assay (CellTiter-Glo), DLD1 cells. The note with it: Homo sapiens, DLD-1 cells, 48 h incubation, second value of the cell, read-out: Cell Viability (μM) DLD-1 (concentration that decreases cell viability by 50%). It counts as cell-based. The procedure:
as §1
In the DLD1 cell assay, cells (ATCC CCL-221) are cultured in RPMI-1640 medium plus 10% foetal calf serum and 2 mM L-glutamine at 37° C., 5% CO2.

SMILES strings stand for the structures.

The values below come from patent US11724999B2, “Inhibitors of RAS-effector protein interactions” (Oxford University Innovation Limited, priority 2018, dated 2023).

With `CN(C)CC(=O)N[C@H]1CC[C@@H](N(Cc2ccn[nH]2)C[C@@H]2COc3ccc(OCc4ccccc4)cc3O2)CC1` [Example 51, N-{4-[((R)-7-Benzyloxy-2,3-dihydro-benzo[1,4]dioxin-2-ylmethyl)-(2H-pyrazol-3-ylmethyl)-amino]-cyclohexyl}-2-dimethylamino-acetamide], the values for the IC50 in assay [1] and in assay [3] were 14 µM and 7.3 µM, respectively. Besides, in assay [2], the “SPR Response Units” value is 166 Response Units.
For `NCc1ccc(CN(C[C@@H]2COc3ccc(OCc4ccccc4)cc3O2)C(=O)c2ncco2)cc1` [Example 44, Oxazole-2-carboxylic acid (4-aminomethyl-benzyl)-((R)-7-benzyloxy-2,3-dihydro-benzo[1,4]dioxin-2-ylmethyl)-amide], the figures for the IC50 in assay [1] and in assay [3] were > 100 µM and 9 µM, respectively. For the same compound, the “SPR Response Units” value in assay [2] amounted to 221 Response Units.
As for `CN1CCN(Cc2cccc(CNC(=O)C3COc4ccc(OCc5ccccc5)cc4O3)c2)CC1` (stereo not drawn) [Example 62, 7-Benzyloxy-2,3-dihydro-benzo[1,4]dioxine-2-carboxylic acid 3-(4-methyl-piperazin-1-ylmethyl)-benzylamide], the IC50 in assay [1] stood at 42 µM; in assay [3], 7 µM. The “SPR Response Units” value in assay [2] stood at 93 Response Units.
The matching figures for `CN1CCC(C(=O)NC[C@@H]2COc3ccc(OCc4ccc(F)cc4)cc3O2)CC1` [Example 31, 1-Methyl-piperidine-4-carboxylic acid [(R)-7-(4-fluoro-benzyloxy)-2,3-dihydro-benzo[1,4]dioxin-2-ylmethyl]-amide]: 18.2 µM, 9.6 µM and 28 Response Units.
The matching figures for `COc1ccc(COc2ccc3c(c2)O[C@H](CNC(=O)c2ccc(CN4CCN(C)CC4)o2)CO3)cc1` [Example 22, 5-(4-Methyl-piperazin-1-ylmethyl)-furan-2-carboxylic acid [(R)-7-(4-methoxy-benzyloxy)-2,3-dihydro-benzo[1,4]dioxin-2-ylmethyl]-amide]: 46 µM, 12 µM and 96 Response Units.
The like results for `CN(C)CC(=O)N[C@H]1CC[C@@H](NC[C@@H]2COc3ccc(OCc4ccccc4)cc3O2)CC1` [Example 50, N-{4-[((R)-7-Benzyloxy-2,3-dihydro-benzo[1,4]dioxin-2-ylmethyl)-amino]-cyclohexyl}-2-dimethylamino-acetamide] were, in that order, 28 µM, 5 µM and 70 Response Units.
As for `O=C(c1ncco1)N(C[C@@H]1COc2ccc(OCc3ccccc3)cc2O1)C1CCN(Cc2ccccc2)CC1` [Example 43, Oxazole-2-carboxylic acid ((R)-7-benzyloxy-2,3-dihydro-benzo[1,4]dioxin-2-ylmethyl)-(1-benzyl-piperidin-4-yl)-amide], the results for the IC50 in assay [1] and in assay [3] were 20.8 µM and 18.5 µM, respectively. The “SPR Response Units” value in assay [2] is on record as 35 Response Units.
The matching figures for `NCC(=O)N[C@H]1CC[C@@H](NC(=O)C2COc3ccc(OCc4ccccc4)cc3O2)CC1` (stereo partly drawn) [Example 85, 7-Benzyloxy-2,3-dihydro-benzo[1,4]dioxine-2-carboxylic acid [4-(2-amino-acetylamino)-cyclohexyl]-amide]: > 100 µM, 10 µM and 64 Response Units.
The matching figures for `Cc1ccccc1COc1ccc2c(c1)O[C@H](CNC(=O)C1CCN(C)CC1)CO2` [Example 32, 1-Methyl-piperidine-4-carboxylic acid [(R)-7-(2-methyl-benzyloxy)-2,3-dihydro-benzo[1,4]dioxin-2-ylmethyl]-amide]: 26.2 µM, 15.9 µM and 37 Response Units.
On to `CN1CCC(C(=O)NC[C@@H]2COc3ccc(OCc4ccccc4)cc3O2)CC1` [Example 1, 1-methyl-piperidine-4-carboxylic acid ((R)-7-benzyloxy-2,3-dihydro-benzo[1,4]dioxin-2-ylmethyl)-amide], for which the IC50 worked out at 61 µM in assay [1] and 13 µM in assay [3]. For the same compound, the “SPR Response Units” value in assay [2] is given as 48 Response Units.
The like results for `O=C(Nc1ncc[nH]1)C1COc2ccc(OCc3ccccc3)cc2O1.O=CO` (stereo not drawn) [Example 61, 7-Benzyloxy-2,3-dihydro-benzo[1,4]dioxine-2-carboxylic acid (1H-imidazol-2-yl)-amide; formic acid salt] were, in that order, > 100 µM, 13 µM and 25 Response Units.
The like results for `O=C1CCCN1CC(NC[C@@H]1COc2ccc(OCc3ccccc3)cc2O1)c1ccccc1` (stereo partly drawn) [Example 47, 1-{2-[((R)-7-Benzyloxy-2,3-dihydro-benzo[1,4]dioxin-2-ylmethyl)-amino]-2-phenyl-ethyl}-pyrrolidin-2-one] were, in that order, 35 µM, 15.7 µM and 48 Response Units.
On to `CN1CCC2(CC1)NC(=O)N(C[C@@H]1COc3ccc(OCc4ccccc4)cc3O1)C2=O` [Example 77, 3-((R)-7-Benzyloxy-2,3-dihydro-benzo[1,4]dioxin-2-ylmethyl)-8-methyl-1,3,8-triaza-spiro[4.5]decane-2,4-dione], for which the IC50 in assay [1] is 59 µM; in assay [3], 4 µM. Moreover, the “SPR Response Units” value in assay [2] turned out to be 49 Response Units.
Regarding `CC(C)(C)OC(=O)NCc1ccc(CN(C[C@@H]2COc3ccc(OCc4ccccc4)cc3O2)C(=O)c2ncco2)cc1` [Example 41, (4-{[((R)-7-Benzyloxy-2,3-dihydro-benzo[1,4]dioxin-2-ylmethyl)-(oxazole-2-carbonyl)-amino]-methyl}-benzyl)-carbamic acid tert-butyl ester], the IC50 in assay [1] is 74 µM; in assay [3], 16 µM. Besides, the “SPR Response Units” value in assay [2] amounted to 7 Response Units.
The like results for `O=C(c1ncco1)N(CC1CCN(Cc2ccccc2)CC1)C[C@@H]1COc2ccc(OCc3ccccc3)cc2O1` [Example 42, Oxazole-2-carboxylic acid ((R)-7-benzyloxy-2,3-dihydro-benzo[1,4]dioxin-2-ylmethyl)-(1-benzyl-piperidin-4-ylmethyl)-amide] were, in that order, 29 µM, 3 µM and 93 Response Units.
The matching figures for `Cc1cccc(COc2ccc3c(c2)O[C@H](CNC(=O)C2CCN(C)CC2)CO3)c1` [Example 28, 1-Methyl-piperidine-4-carboxylic acid [(R)-7-(3-methyl-benzyloxy)-2,3-dihydro-benzo[1,4]dioxin-2-ylmethyl]-amide]: 16.6 µM, 8.2 µM and 39 Response Units.
The matching figures for `O=C(NC[C@@H]1COc2ccc(OCc3ccccc3)cc2O1)c1ncco1` [Example 3, Oxazole-2-carboxylic acid ((R)-7-benzyloxy-2,3-dihydro-benzo[1,4]dioxin-2-ylmethyl)-amide]: > 100 µM, 20 µM and 12 Response Units.
